Twelve compounds from patent US20240218022A1, “ANTI-VISTA MACROCYCLIC PEPTIDES AND COMPOSITIONS” (BRISTOL-MYERS SQUIBB COMPANY, priority 2022, published 2024) can be followed below.

Starred links: 1 amine or outer side, 2 acyl side, 3 side chain; linkers in the order of their positions; H or OH if unused. Positions of bridges follow the written chain, without caps; N, C: chain ends. Non-standard residues stand in square brackets, D forms with d. Residues, ends and D or L forms follow the SMILES beside them. Phe(4-CONH2) = NC(=O)c1ccc(C[C@H](N)C(=O)O)cc1; Phe(3-Me) = Cc1cccc(C[C@H](N)C(=O)O)c1; βAsp = O=C(O)[C@H](CC(=O)[*:2])N[*:1]; Ahp(2) = CCCCC[C@H](N)C(=O)O; NMeNle = CCCC[C@H](NC)C(=O)O; Tle = CC(C)(C)[C@H](N)C(=O)O; NHexGly = CCCCCCNCC(=O)O; Orn = NCCC[C@H](N)C(=O)O; Aun = NCCCCCCCCCCC(=O)O; Dab = NCC[C@H](N)C(=O)O; AEEA = NCCOCCOCC(=O)O

The experiment addresses T1, mouse VISTA (mVISTA) (Mus musculus, UniProt Q9D659).
T1 construct: expressed in transfected cells; host or cells: Human embryonic kidney 293T cells
T1 sequence (Q9D659 33-308): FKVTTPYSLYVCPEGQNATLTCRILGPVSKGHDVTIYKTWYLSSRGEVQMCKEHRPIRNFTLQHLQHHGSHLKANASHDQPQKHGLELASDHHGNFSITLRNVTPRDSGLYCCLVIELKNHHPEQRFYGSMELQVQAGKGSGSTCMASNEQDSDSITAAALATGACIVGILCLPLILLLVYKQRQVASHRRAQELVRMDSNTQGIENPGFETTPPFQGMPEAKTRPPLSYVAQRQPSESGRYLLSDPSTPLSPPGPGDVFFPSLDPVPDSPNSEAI
As to the kind of experiment: Cell-Based Binding High-Content Assay For mVISTA (HC CBA mVISTA). To be noted: cell-based binding high-content assay, mVISTA; read-out: HC CBA miPrISTA IC50. The essentials:
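Read-out: Alexa 647–streptavidin signal imaged on fixed, Hoechst-stained mVISTA-293T cells, with IC50 taken from a four-parameter logistic curve. Compounds competed with 2 nM biotinylated peptide for 30 min at room temperature, tested under both no-wash and wash (1 h compound, media exchange, 1 h) formats.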
For `CCCCCCN1CC(=O)N[C@@H](Cc2ccc(O)cc2)C(=O)N[C@@H](CC(C)C)C(=O)N[C@@H](CC(N)=O)C(=O)N[C@@H](CCCN)C(=O)N(C)[C@@H](CCCC)C(=O)N[C@@H](CCCCC)C(=O)N2CCC[C@H]2C(=O)N[C@@H](C(C)(C)C)C(=O)N[C@@H](C(C)C)C(=O)N[C@H](C(=O)N[C@@H](CC(=O)NCCOCCOCC(=O)N[C@@H](CC(=O)O)C(=O)NCCOCCOCC(=O)NCCCCCCCCCCC(=O)O)C(=O)O)CSCC(=O)N[C@@H](Cc2ccccc2)C(=O)N[C@@H](Cc2cccc(C)c2)C(=O)N[C@@H](CC(=O)O)C1=O` [compound 2072] ({CH2CO}-F[Phe(3-Me)]D[NHexGly]YLN[Orn][NMeNle][Ahp(2)]P[Tle]VC[βAsp][AEEA]D[AEEA][Aun]-OH; thioether N-14), the IC50 was found to be 21.1 nM.
As to `CCCCCCN1CC(=O)N[C@@H](Cc2ccc(O)cc2)C(=O)N[C@@H](CC(C)C)C(=O)N[C@@H](CC(N)=O)C(=O)N[C@@H](CCCNC(=N)N)C(=O)N(C)[C@@H](CCCC)C(=O)N[C@@H](CCCCC)C(=O)N2CCC[C@H]2C(=O)N[C@@H](C(C)(C)C)C(=O)N[C@@H](C(C)C)C(=O)N[C@H](C(=O)N[C@@H](CC(=O)NCCOCCOCC(=O)N[C@@H](CC(=O)O)C(=O)NCCOCCOCC(=O)NCCCCCCCCCCC(=O)O)C(=O)O)CSCC(=O)N[C@@H](Cc2ccccc2)C(=O)N[C@@H](Cc2cccc(C)c2)C(=O)N[C@@H](CC(=O)O)C1=O` [compound 2073] ({CH2CO}-F[Phe(3-Me)]D[NHexGly]YLNR[NMeNle][Ahp(2)]P[Tle]VC[βAsp][AEEA]D[AEEA][Aun]-OH; thioether N-14), the IC50 was 33.4 nM.
Consider `CCCCCCN1CC(=O)N[C@@H](Cc2ccc(O)cc2)C(=O)N[C@@H](CC(C)C)C(=O)N[C@@H](CC(N)=O)C(=O)N[C@@H](CCCN)C(=O)N(C)[C@@H](CCCC)C(=O)N[C@@H](CCCCC)C(=O)N2CCC[C@H]2C(=O)N[C@@H](C(C)(C)C)C(=O)N[C@@H](CC(=O)O)C(=O)N[C@H](C(=O)N[C@@H](CC(=O)NCCOCCOCC(=O)N[C@@H](CC(=O)O)C(=O)NCCOCCOCC(=O)NCCCCCCCCCCC(=O)O)C(=O)O)CSCC(=O)N[C@@H](Cc2ccccc2)C(=O)N[C@@H](Cc2cccc(C)c2)C(=O)N[C@@H](CC(=O)O)C1=O` [compound 2074] ({CH2CO}-F[Phe(3-Me)]D[NHexGly]YLN[Orn][NMeNle][Ahp(2)]P[Tle]DC[βAsp][AEEA]D[AEEA][Aun]-OH; thioether N-14), for which the half-maximal inhibitory concentration (IC50) is 40 nM.
As to `CCCCCCN1CC(=O)N[C@@H](Cc2ccc(O)cc2)C(=O)N[C@@H](CC(C)C)C(=O)N[C@@H](CC(N)=O)C(=O)N[C@@H](CCCNC(=N)N)C(=O)N(C)[C@@H](CCCC)C(=O)N[C@@H](CCCCC)C(=O)N2CCC[C@H]2C(=O)N[C@@H](C(C)(C)C)C(=O)N[C@@H](CC(=O)O)C(=O)N[C@H](C(=O)N[C@@H](CC(=O)NCCOCCOCC(=O)N[C@@H](CC(=O)O)C(=O)NCCOCCOCC(=O)NCCCCCCCCCCC(=O)O)C(=O)O)CSCC(=O)N[C@@H](Cc2ccccc2)C(=O)N[C@@H](Cc2cccc(C)c2)C(=O)N[C@@H](CC(=O)O)C1=O` [compound 2075] ({CH2CO}-F[Phe(3-Me)]D[NHexGly]YLNR[NMeNle][Ahp(2)]P[Tle]DC[βAsp][AEEA]D[AEEA][Aun]-OH; thioether N-14), the IC50 was 24.1 nM.
In the case of `CCCCCCN1CC(=O)N[C@@H](Cc2ccc(O)cc2)C(=O)N[C@@H](CC(C)C)C(=O)N[C@@H](CC(N)=O)C(=O)N[C@@H](CCCNC(=N)N)C(=O)N(C)[C@@H](CCCC)C(=O)N[C@@H](CCCCC)C(=O)N2CCC[C@H]2C(=O)N[C@@H](C(C)(C)C)C(=O)N[C@@H](CO)C(=O)N[C@H](C(=O)N[C@@H](CC(=O)NCCOCCOCC(=O)N[C@@H](CC(=O)O)C(=O)NCCOCCOCC(=O)NCCCCCCCCCCC(=O)O)C(=O)O)CSCC(=O)N[C@@H](Cc2ccccc2)C(=O)N[C@@H](Cc2cccc(C)c2)C(=O)N[C@@H](CC(=O)O)C1=O` [compound 2076] ({CH2CO}-F[Phe(3-Me)]D[NHexGly]YLNR[NMeNle][Ahp(2)]P[Tle]SC[βAsp][AEEA]D[AEEA][Aun]-OH; thioether N-14), the IC50 was found to be 38.1 nM.
For the compound `CCCCCCN1CC(=O)N[C@@H](Cc2ccc(O)cc2)C(=O)N[C@@H](CC(C)C)C(=O)N[C@@H](CC(N)=O)C(=O)N[C@@H](CCCN)C(=O)N(C)[C@@H](CCCC)C(=O)N[C@@H](CCCCC)C(=O)N2CCC[C@H]2C(=O)N[C@@H](C(C)(C)C)C(=O)N[C@@H](CO)C(=O)N[C@H](C(=O)N[C@@H](CC(=O)NCCOCCOCC(=O)N[C@@H](CC(=O)O)C(=O)NCCOCCOCC(=O)NCCCCCCCCCCC(=O)O)C(=O)O)CSCC(=O)N[C@@H](Cc2ccccc2)C(=O)N[C@@H](Cc2cccc(C)c2)C(=O)N[C@@H](CC(=O)O)C1=O` [compound 2077] ({CH2CO}-F[Phe(3-Me)]D[NHexGly]YLN[Orn][NMeNle][Ahp(2)]P[Tle]SC[βAsp][AEEA]D[AEEA][Aun]-OH; thioether N-14), the IC50 is 33.5 nM.
With `CCCCCCN1CC(=O)N[C@@H](Cc2ccc(O)cc2)C(=O)N[C@@H](CC(C)C)C(=O)N[C@@H](CC(N)=O)C(=O)N[C@@H](CCCNC(=N)N)C(=O)N(C)[C@@H](CCCC)C(=O)N[C@@H](CCCCC)C(=O)N2CCC[C@H]2C(=O)N[C@@H](C(C)(C)C)C(=O)N[C@@H](CO)C(=O)N[C@H](C(=O)N[C@@H](CCCCN)C(=O)NCCOCCOCC(=O)N[C@@H](CC(=O)O)C(=O)NCCOCCOCC(=O)NCCCCCCCCCCC(=O)O)CSCC(=O)N[C@@H](Cc2ccccc2)C(=O)N[C@@H](Cc2ccc(O)cc2)C(=O)N[C@@H](CC(=O)O)C1=O` [compound 2080] ({CH2CO}-FYD[NHexGly]YLNR[NMeNle][Ahp(2)]P[Tle]SCK[AEEA]D[AEEA][Aun]-OH; thioether N-14), the IC50 worked out at 28.5 nM.
With `CCCCCCN1CC(=O)N[C@@H](Cc2ccc(O)cc2)C(=O)N[C@@H](CC(C)C)C(=O)N[C@@H](CC(N)=O)C(=O)N[C@@H](CCCNC(=N)N)C(=O)N(C)[C@@H](CCCC)C(=O)N[C@@H](CCCCC)C(=O)N2CCC[C@H]2C(=O)N[C@@H](C(C)(C)C)C(=O)N[C@@H](CC(=O)O)C(=O)N[C@H](C(=O)N[C@@H](CCCN)C(=O)NCCOCCOCC(=O)N[C@@H](CC(=O)O)C(=O)NCCOCCOCC(=O)NCCCCCCCCCCC(=O)O)CSCC(=O)N[C@@H](Cc2ccccc2)C(=O)N[C@@H](Cc2ccc(O)cc2)C(=O)N[C@@H](CC(=O)O)C1=O` [compound 2082] ({CH2CO}-FYD[NHexGly]YLNR[NMeNle][Ahp(2)]P[Tle]DC[Orn][AEEA]D[AEEA][Aun]-OH; thioether N-14) the figure was 27.6 nM; with `CCCCCCN1CC(=O)N[C@@H](Cc2ccc(O)cc2)C(=O)N[C@@H](CC(C)C)C(=O)N[C@@H](CC(N)=O)C(=O)N[C@@H](CCCNC(=N)N)C(=O)N(C)[C@@H](CCCC)C(=O)N[C@@H](CCCCC)C(=O)N2CCC[C@H]2C(=O)N[C@@H](C(C)(C)C)C(=O)N[C@@H](CC(=O)O)C(=O)N[C@H](C(=O)N[C@@H](CCN)C(=O)NCCOCCOCC(=O)N[C@@H](CC(=O)O)C(=O)NCCOCCOCC(=O)NCCCCCCCCCCC(=O)O)CSCC(=O)N[C@@H](Cc2ccccc2)C(=O)N[C@@H](Cc2ccc(O)cc2)C(=O)N[C@@H](CC(=O)O)C1=O` [compound 2085] ({CH2CO}-FYD[NHexGly]YLNR[NMeNle][Ahp(2)]P[Tle]DC[Dab][AEEA]D[AEEA][Aun]-OH; thioether N-14), 41.7 nM.
On to `CCCCCCN1CC(=O)N[C@@H](Cc2ccc(O)cc2)C(=O)N[C@@H](CC(C)C)C(=O)N[C@@H](CC(N)=O)C(=O)N[C@@H](CCCNC(=N)N)C(=O)N(C)[C@@H](CCCC)C(=O)N[C@@H](CCCCC)C(=O)N2CCC[C@H]2C(=O)N[C@@H](C(C)(C)C)C(=O)N[C@@H](CO)C(=O)N[C@H](C(=O)N[C@@H](CCN)C(=O)NCCOCCOCC(=O)N[C@@H](CC(=O)O)C(=O)NCCOCCOCC(=O)NCCCCCCCCCCC(=O)O)CSCC(=O)N[C@@H](Cc2ccccc2)C(=O)N[C@@H](Cc2ccc(O)cc2)C(=O)N[C@@H](CC(=O)O)C1=O` [compound 2086] ({CH2CO}-FYD[NHexGly]YLNR[NMeNle][Ahp(2)]P[Tle]SC[Dab][AEEA]D[AEEA][Aun]-OH; thioether N-14), for which the IC50 worked out at 49.9 nM.
For `CCCCCCN1CC(=O)N[C@@H](Cc2ccc(O)cc2)C(=O)N[C@@H](CC(C)C)C(=O)N[C@@H](CC(N)=O)C(=O)N[C@@H](CCCNC(=N)N)C(=O)N(C)[C@@H](CCCC)C(=O)N[C@@H](CCCCC)C(=O)N2CCC[C@H]2C(=O)N[C@@H](C(C)(C)C)C(=O)N[C@@H](CO)C(=O)N[C@H](C(=O)N[C@@H](CC(=O)NCCOCCOCC(=O)N[C@@H](CC(=O)O)C(=O)NCCOCCOCC(=O)NCCCCCCCCCCC(=O)O)C(=O)O)CSCC(=O)N[C@@H](Cc2ccc(C(N)=O)cc2)C(=O)N[C@@H](Cc2ccc(O)cc2)C(=O)N[C@@H](CC(=O)O)C1=O` [compound 2087] ({CH2CO}-[Phe(4-CONH2)]YD[NHexGly]YLNR[NMeNle][Ahp(2)]P[Tle]SC[βAsp][AEEA]D[AEEA][Aun]-OH; thioether N-14), the IC50 turned out to be 28.8 nM.
Turning to `CCCCCCN1CC(=O)N[C@@H](Cc2ccc(O)cc2)C(=O)N[C@@H](CC(C)C)C(=O)N[C@@H](CC(N)=O)C(=O)N[C@@H](CCCNC(=N)N)C(=O)N(C)[C@@H](CCCC)C(=O)N[C@@H](CCCCC)C(=O)N2CCC[C@H]2C(=O)N[C@@H](C(C)(C)C)C(=O)N[C@@H](CC(=O)O)C(=O)N[C@H](C(=O)N[C@@H](CC(=O)NCCOCCOCC(=O)N[C@@H](CC(=O)O)C(=O)NCCOCCOCC(=O)NCCCCCCCCCCC(=O)O)C(=O)O)CSCC(=O)N[C@@H](Cc2ccc(C(N)=O)cc2)C(=O)N[C@@H](Cc2ccc(O)cc2)C(=O)N[C@@H](CC(=O)O)C1=O` [compound 2088] ({CH2CO}-[Phe(4-CONH2)]YD[NHexGly]YLNR[NMeNle][Ahp(2)]P[Tle]DC[βAsp][AEEA]D[AEEA][Aun]-OH; thioether N-14), the IC50 turned out to be 16.9 nM.

A word on the IC50: it is the concentration needed to halve the response being measured.
